These compounds were tested against PIK3CG (human) (UniProt P48736) (assay: Inhibition of PIK3CG Kinase Activity).
Chain of PIK3CG (human) (P48736 whole entry, looked up): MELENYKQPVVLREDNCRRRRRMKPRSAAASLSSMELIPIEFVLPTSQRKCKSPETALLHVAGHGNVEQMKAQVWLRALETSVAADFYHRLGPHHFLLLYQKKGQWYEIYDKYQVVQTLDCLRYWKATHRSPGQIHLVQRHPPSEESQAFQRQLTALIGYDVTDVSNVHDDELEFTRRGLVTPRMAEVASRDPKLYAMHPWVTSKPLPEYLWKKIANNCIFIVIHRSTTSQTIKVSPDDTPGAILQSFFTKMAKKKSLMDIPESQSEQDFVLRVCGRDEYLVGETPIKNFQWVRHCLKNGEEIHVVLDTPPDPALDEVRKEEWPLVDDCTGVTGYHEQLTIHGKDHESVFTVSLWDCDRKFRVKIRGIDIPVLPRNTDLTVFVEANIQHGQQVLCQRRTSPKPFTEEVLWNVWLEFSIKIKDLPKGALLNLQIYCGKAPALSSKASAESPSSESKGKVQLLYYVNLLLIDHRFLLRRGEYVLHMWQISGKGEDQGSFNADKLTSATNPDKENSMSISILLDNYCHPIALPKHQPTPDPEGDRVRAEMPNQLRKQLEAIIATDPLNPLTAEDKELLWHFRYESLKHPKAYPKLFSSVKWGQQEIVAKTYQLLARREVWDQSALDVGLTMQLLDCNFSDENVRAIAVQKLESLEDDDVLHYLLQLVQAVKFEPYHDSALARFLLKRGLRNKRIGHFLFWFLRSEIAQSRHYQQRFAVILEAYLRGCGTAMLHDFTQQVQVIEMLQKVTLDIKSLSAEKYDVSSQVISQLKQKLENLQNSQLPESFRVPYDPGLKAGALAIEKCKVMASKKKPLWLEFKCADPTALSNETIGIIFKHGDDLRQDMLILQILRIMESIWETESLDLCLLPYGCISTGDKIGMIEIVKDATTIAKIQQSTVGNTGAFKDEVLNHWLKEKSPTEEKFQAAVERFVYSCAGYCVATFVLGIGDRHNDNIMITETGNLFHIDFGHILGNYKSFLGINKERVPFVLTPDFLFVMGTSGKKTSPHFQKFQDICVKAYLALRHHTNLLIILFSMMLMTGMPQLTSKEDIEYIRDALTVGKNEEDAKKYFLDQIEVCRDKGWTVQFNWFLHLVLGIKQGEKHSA
For `CCOc1cncc(-c2cc(C)c3c(n2)C(C)(OC)N(c2cnn(CC(F)(F)F)c2)C3=O)c1` (configuration not stated), the Ki was < 0.1 µM.
With `Cc1cc(-c2cncc(NS(=O)(=O)c3ccc(F)cc3F)c2)nc2c1C(=O)N(c1cnn(CC(F)(F)F)c1)C2(C)C` the Ki was < 0.1 µM.
In the case of `CNC(=O)c1cc(-c2cc(C)c3c(n2)C(C)(C)N(c2cnn(CC(F)(F)F)c2)C3=O)cnc1OC`, the Ki is reported as 0.1 to 0.49 µM.
In the case of `COc1cc(OC)cc(-c2cc(C)c3c(n2)CN(c2cnn(CC#N)c2)C3=O)c1`, the Ki is reported as < 0.1 µM.
`Cc1cc(-c2cncc(OCC(F)F)c2)nc2c1C(=O)N(c1cnn(CC(F)(F)F)c1)C2C` (configuration not stated) was tested, and the Ki was < 0.1 µM.
In the case of `CCOc1cncc(-c2cc(C)c3c(n2)[C@@H](C)N(c2cnn(CC(F)(F)F)c2)C3=O)c1`, the Ki is reported as < 0.1 µM.
With `Cc1cc(-c2cncc(OC(F)F)c2)nc2c1C(=O)N(c1cnn(C)c1)C2C` (configuration not stated) the Ki was < 0.1 µM.
With `COc1cc(-c2ccc3c(n2)CN(c2cccs2)C3=O)cnc1OC` the Ki was < 0.1 µM.
For `COc1cc(-c2ccc3c(n2)CN(c2ccn(C[C@@H](C)O)n2)C3=O)cnc1OC`, the Ki was < 0.1 µM.
For `Cc1cc(-c2cncc(OC(F)F)c2)nc2c1C(=O)N(c1cnn(C[C@H](C)O)c1)[C@H]2C`, the Ki was < 0.1 µM.
For `COc1cc(-c2ccc3c(n2)CN(c2ccc(=O)n(CC4COCCO4)c2)C3=O)cnc1OC` (configuration not stated), the Ki was < 0.1 µM.
For `CCO[C@]1(C)c2nc(-c3cnc(OC)c(OC)c3)cc(C)c2C(=O)N1c1cnn(CC(F)(F)F)c1`, the Ki was < 0.1 µM.
`COc1cc(-c2ccc3c(n2)[C@@H](OC)N(c2cnn(CC(F)(F)F)c2)C3=O)cnc1OC` was tested, and the Ki was < 0.1 µM.
`COc1cc(-c2cc(C)c3c(n2)C2(CCCO2)N(c2cnn(CC(F)(F)F)c2)C3=O)cnc1OC(C)C` (configuration not stated) was tested, and the Ki was < 0.1 µM.
Work on `CCOC(=O)C(F)(F)c1ccc(N2Cc3nc(-c4cnc(OC)c(OC)c4)ccc3C2=O)cn1` yielded a Ki of 0.1 to 0.49 µM.
For `COc1cncc(-c2cc(C)c3c(n2)C(C)(C)N(c2cnn([C@@H]4CCOC4)c2)C3=O)c1`, the Ki was < 0.1 µM.
With `CCOc1ncc(-c2cc(C)c3c(c2)CN(c2cnn(CC(F)(F)F)c2)C3=O)cc1OC` the Ki was < 0.1 µM.
With `Cc1cc(-c2cnc(C)c(OCC(F)F)c2)nc2c1C(=O)N(c1cnn(CC(F)F)c1)C2(C)C` the Ki was < 0.1 µM.
In the case of `COc1cncc(-c2cc(C)c3c(n2)CN(c2ccn(C)n2)C3=O)c1`, the Ki is reported as < 0.1 µM.
With `COc1ncc(-c2cc(C)c3c(n2)CN(c2cnn(C(C)(C)C#N)c2)C3=O)cn1` the Ki was < 0.1 µM.
`COc1cc(-c2cc(C)c3c(n2)CN(c2cnn(C[C@@H](C)O)c2)C3=O)cnc1OC` was tested, and the Ki was < 0.1 µM.
`COc1ncc(-c2cc(C)c3c(n2)CN(c2cn[nH]c2)C3=O)cc1OCC(F)F` was tested, and the Ki was < 0.1 µM.
`COc1cc(-c2ccc3c(n2)C(C)N(c2cncc(C(O)C(F)(F)F)c2)C3=O)cnc1OC` (configuration not stated) was tested, and the Ki was < 0.1 µM.
In the case of `CCOc1ncc(-c2cc(C)c3c(n2)C2(CCCO2)N(c2cnn(CC(F)(F)F)c2)C3=O)cc1OC` (configuration not stated), the Ki is reported as < 0.1 µM.
`COc1cc(-c2ccc3c(c2)CN(c2ccn(CC#N)n2)C3=O)cnc1OC` was tested, and the Ki was < 0.1 µM.
Compound `COc1cc(-c2ccc3c(n2)CN(c2cncc(CN4CCOCC4)c2)C3=O)cnc1OC` has a Ki of 0.1 to 0.49 µM.
For `COc1cncc(-c2cc(C)c3c(n2)CN(c2ccn([C@H]4CCOC4)n2)C3=O)c1`, the Ki was < 0.1 µM.
`COc1cncc(-c2cc(C)c3c(n2)C(C)(C)N(c2cnn(C4CC4)c2)C3=O)c1` showed a Ki of 0.1 to 0.49 µM.
`COc1cc(-c2ccc3c(c2)CN(c2nncs2)C3=O)cnc1OC` was tested, and the Ki was 0.1 to 0.49 µM.
In the case of `Cc1cc(-c2cc(OC(F)(F)F)ccc2Cl)nc2c1C(=O)N(c1cnn(CC(F)(F)F)c1)C2`, the Ki is reported as 0.1 to 0.49 µM.
In the case of `COc1ncc(-c2cc(C)c3c(n2)C(C)(C)N(c2cnn(CC(F)(F)F)c2)C3=O)cc1C(=O)O`, the Ki is reported as < 0.1 µM.
With `CCn1ccc(N2Cc3nc(-c4cncc(OC(F)F)c4)cc(C)c3C2=O)n1` the Ki was < 0.1 µM.
For `COc1cc(-c2ccc3c(n2)CN(c2cnn(Cc4cn(C)cn4)c2)C3=O)cnc1OC`, the Ki was < 0.1 µM.
In the case of `CCNS(=O)(=O)c1cc(-c2cc(C)c3c(n2)C(C)(C)N(c2cnn(CC(F)(F)F)c2)C3=O)cnc1OC`, the Ki is reported as < 0.1 µM.
In the case of `CCn1ccnc1Cn1cc(N2Cc3nc(-c4cnc(OC)c(OC)c4)ccc3C2=O)cn1`, the Ki is reported as < 0.1 µM.
In the case of `CCCn1nc(N2Cc3nc(-c4cnc(OC)c(OC)c4)cc(C)c3C2=O)cc1COC`, the Ki is reported as < 0.1 µM.
With `COCc1cc(N2Cc3nc(-c4cnc(OC)c(OC)c4)ccc3C2=O)nn1CC(F)(F)F` the Ki was < 0.1 µM.
In the case of `CCOc1cncc(-c2cc(C)c3c(n2)CN(c2cnn(CC(F)F)c2)C3=O)c1`, the Ki is reported as < 0.1 µM.
For `COc1cc(OC)cc(-c2cc(C)c3c(n2)[C@H](C)N(c2cnn(CC(F)(F)F)c2)C3=O)c1`, the Ki was < 0.1 µM.
For `CCOCCOc1cc(-c2cc(C)c3c(n2)CN(c2cnn(CC(F)(F)F)c2)C3=O)cnc1OC`, the Ki was < 0.1 µM.
In the case of `COc1cc(-c2ccc3c(n2)CN(c2cnn(C(C)C)c2)C3=O)cnc1OC`, the Ki is reported as < 0.1 µM.
For `COc1csc(-c2cc(C)c3c(n2)CN(c2cnn(CC(F)(F)F)c2)C3=O)c1`, the Ki was < 0.1 µM.
Work on `COc1cc(-c2ccc3c(n2)CN(c2ccnc(N(C)CCCN(C)C)c2)C3=O)cnc1OC` yielded a Ki of 0.1 to 0.49 µM.
With `COc1ncc(-c2cc(C)c3c(n2)C(C)(C)N(c2cnn(CC(F)(F)F)c2)C3=O)cc1C(=O)NCC(C)(C)O` the Ki was < 0.1 µM.
With `COc1cc(-c2ccc3c(n2)C(OC)N(c2cnn(CC(F)(F)F)c2)C3=O)cnc1OC` (configuration not stated) the Ki was < 0.1 µM.
In the case of `Cc1cc(-c2cc(C)c3c(n2)CN(c2cnn(CC(F)(F)F)c2)C3=O)ccn1`, the Ki is reported as < 0.1 µM.
Work on `COc1cc(-c2ccc3c(n2)C(N2CCOCC2)N(c2cnn(CC(F)(F)F)c2)C3=O)cnc1OC` (configuration not stated) yielded a Ki of 0.1 to 0.49 µM.
